The numbers were not newly measured in patent publication US7196180B2, “Functionalized derivatives of hyaluronic acid, formation of hydrogels in situ using same, and methods for making and using same” (Orthogene LLC, priority 1998, dated 2007), which cites them from elsewhere.

A word on the pKa: it is the negative logarithm of the acid dissociation constant.

Molecules are shown by their SMILES.

As for `NCCCCN` [putrescine], the pKa is recorded as more than 9.
